According to patent US20150148311A1, “NON-SYSTEMIC TGR5 AGONISTS” (Ardelyx, Inc., priority 2011, published 2015):

Experiments:
[1] = Compound concentration in gall bladder, LC-MS/MS, 8 h post dose; format: in vivo; conditions: male, C57BL/6, mouse, with contents, mice, 30 mg/kg, gallbladder homogenate, read-out: Mean Example Gallbladder Concentration
Experimental: (§1) Eight hours later, each mouse was heavily anesthetized with isoflurane, the peritoneal cavity was opened and the gallbladder, with its entire contents, was carefully excised and weighed. Blood was collected from the left ventricle of the heart and processed to plasma in EDTA-coated tubes containing aprotinin and DPPIV inhibitor for measurement of total GLP-1 (K150FCC; Meso Scales Discovery, Gaithersburg Md.).
Compound concentrations in the gall bladder were determined as follows: each mouse was heavily anesthetized with isoflurane, the peritoneal cavity was opened and the gallbladder, with its entire contents, was carefully excised. After harvest, gall bladders were homogenized in 100 μL water using a micro-homogenizer. Samples of homogenate were diluted 1:5 in water and precipitated with three volumes of neat acetonitrile. After centrifugation, supernatants were analyzed by LC-MS/MS. The level of test compound present in gall bladder samples was interpolated from a standard curve for each individual compound prepared in a matrix of gallbladder homogenate from vehicle treated animals.

human TGR5 = target: T1, human TGR5 (Homo sapiens, UniProt Q8TDU6); experiment: Cell-based TGR5 assay, HEK293 cells stably expressing human TGR5, cAMP by HTRF; conditions: HEK293 cells stably expressing human TGR5, 30 min at 37 C, 0.05 nM to 10 μM; for EC50: read-out: pEC50 Human TGR5 (converted)
T1 construct: expressed in transfected cells
T1 sequence (Q8TDU6 1-330): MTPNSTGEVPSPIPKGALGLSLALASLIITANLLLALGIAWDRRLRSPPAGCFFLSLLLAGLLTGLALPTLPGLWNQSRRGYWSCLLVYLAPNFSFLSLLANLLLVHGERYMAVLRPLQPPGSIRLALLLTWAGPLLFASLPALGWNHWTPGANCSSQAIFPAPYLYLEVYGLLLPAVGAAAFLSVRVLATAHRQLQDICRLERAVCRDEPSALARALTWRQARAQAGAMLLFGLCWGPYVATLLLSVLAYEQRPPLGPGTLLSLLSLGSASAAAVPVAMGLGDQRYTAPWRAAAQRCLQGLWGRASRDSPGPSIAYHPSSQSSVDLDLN
In short: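 cAMP HTRF read-out, converted to concentration via standard curve, after a 30 min, 37 °C compound exposure in HBSS with 10 mM HEPES pH 7.4 and 0.5 mM IBMX, compounds serially diluted 3-fold from 10 mM DMSO stock then 100-fold. Cells: stable human TGR5 HEK293, or NCI-H716 expressing TGR5 endogenously.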

[2] = target: T2, endogenously expressed TGR5 in NCI H716 (Homo sapiens, UniProt Q8TDU6); experiment: Cell-based TGR5 assay, NCI-H716 cells endogenously expressing human TGR5, cAMP by HTRF; conditions: 30 min at 37 C, 22 nM to 50 μM, read-out: pEC50 endogenously expressed TGR5 in NCI H716 (converted)
T2 construct: human caecum carcinoma cell line NCI-H716 which endogenously expresses human TGR5; endogenous in cells; host or cells: NCI-H716
T2 sequence (Q8TDU6 1-330): T1 sequence (Q8TDU6 1-330)
Experimental: Two primary cell based screens were performed. The first utilized HEK293 cells stably transfected to heterologously express human TGR5. The second screen used the human caecum carcinoma cell line NCI-H716 which endogenously expresses human TGR5. In both assays, cells are treated with candidate TGR5 activators and assessed for the increased intercellular levels of cAMP. […]
TGR5-mediated cAMP generation was measured using a homogeneous time resolved fluorescence (HTRF) detection method (Cisbio). Test compounds were dissolved in DMSO to a final concentration of 10 mM. Serial 3-fold dilutions of the stock solution were made in DMSO, and these solutions were diluted 100-fold into Hanks Balanced Salt Solution supplemented with 10 mM HEPES pH 7.4 and 0.5 mM isobutyl methylxanthine (IBMX). Prior to assay, culture medium was replaced with fresh medium, and test compounds diluted in HBSS/HEPES/IBMX were added to the cells and incubated at 37° C. for 30 minutes.
Following incubation with test compounds, cAMP was detected through the successive addition of cAMP labeled with the modified allophyocyanin dye d2 (cAMP-d2) and cryptate-labeled anti-cAMP in lysis buffer, and reading HTRF per the manufacturer's instructions. A standard curve was used to convert the raw HTRF data into [cAMP].

[3] = Compound plasma concentration, LC-MS/MS, 8 h post dose; format: in vivo; conditions: male, C57BL/6, mouse, mice, 30 mg/kg, plasma, read-out: Mean Example Plasma Concentration
Experimental: as §1
Plasma samples were treated with acetonitrile containing an internal standard, precipitated proteins removed by centrifugation. Supernatants were analyzed by LC-MS/MS and compound concentrations were determined by interpolated from a standard curve prepared in plasma.

Row | Compound | concentration at 8 h [1] | EC50 (human TGR5) | EC50 [2] | concentration at 8 h [3] | pEC50 Human TGR5 (human TGR5)
1 | O=C(NCCCCc1cc(Cl)c(CN2CSC[C@H]2C(=O)N2CCN(C3CC3)c3ccccc32)cc1Cl)NC[C@@H](O)[C@H](O)[C@@H](O)[C@@H](O)CO [Example 177, 1-(4-(2,5-dichloro-4-(((R)-4-(4-cyclopropyl-1,2,3,4-tetrahydroquinoxaline-1-carbonyl)thiazolidin-3-yl)methyl)phenyl)butyl)-3-((2R,3S,4S,5S)-2,3,4,5,6-pentahydroxyhexyl)urea] | 100 nM |  |  |  | 
2 | O=C([C@@H]1CCCN1Cc1cc(C(F)(F)F)ccc1Cl)N1CCN(C2CC2)c2ccccc21 [Example 84, 1-[[(2S)-1-[[2-chloro-5-(trifluoromethyl)phenyl]methyl]pyrrolidin-2-yl]carbonyl]-4-cyclopropyl-1,2,3,4-tetrahydroquinoxaline] |  | < 100 nM | 126 to 1000 nM |  | 
3 | O=C(N1CCN(C2CC2)c2ccccc21)C1(NCc2cc(Cl)ccc2C(F)(F)F)CC1 [Example 254] |  | < 100 nM | < 100 nM |  | 
4 | COc1ccc(COC2(C(=O)N3CCN(C4CC4)c4ccccc43)CC2)c(Cl)c1 [Example 246] |  | 126 to 1000 nM | 1260 to 50100 nM |  | 
5 | O=C(N1CCN(C2CC2)c2ccccc21)C1(OCc2cc(Cl)ccc2C(F)(F)F)CC1 [Example 42, (1-(5-chloro-2-(trifluoromethyl)benzyloxy)cyclopropyl)(4-cyclopropyl-3,4-dihydroquinoxalin-1(2H)-yl)methanone] |  | 126 to 1000 nM | 126 to 1000 nM |  | 
6 | CC(OC1(C(=O)N2CCN(C3CC3)c3ccccc32)CC1)c1cc(Cl)ccc1Cl (stereo not shown) [Example 94, (4-cyclopropyl-3,4-dihydroquinoxalin-1(2H)-yl)(1-(1-(2,5-dichlorophenyl)ethoxy)cyclopropyl)methanone] |  | 1260 to 50100 nM | 1260 to 50100 nM |  | 
7 | O=C(CCc1ccc(Cl)c(CNC2(C(=O)N3CCN(C4CC4)c4ccccc43)CC2)c1)NC[C@H](O)[C@@H](O)[C@H](O)[C@H](O)CO [Example 70, 3-(4-chloro-3-(((1-(4-cyclopropyl-1,2,3,4-tetrahydroquinoxaline-1-carbonyl)cyclopropyl)amino)methyl)phenyl)-N-((2S,3R,4R,5R)-2,3,4,5,6-pentahydroxyhexyl)propanamide] |  | 1260 to 50100 nM | 1260 to 50100 nM |  | 
8 | O=C([C@@H]1CCCN1Cc1c(Cl)cccc1Cl)N1CCN(C2CC2)c2ccccc21 [Example 47, (S)(4-cyclopropyl-3,4-dihydroquinoxaline-1(2H)-yl)(1-(2,6-dichlorobenzyl)pyrrolidin-2-yl) methanone] |  | > 10000 nM | 1260 to 50100 nM |  | 
9 | O=C([C@@H]1CCCN1Cc1cc(Cl)cc(OC(F)(F)F)c1)N1CCN(C2CC2)c2ccccc21 [Example 74, 1-[[(2S)-1-[[3-chloro-5-(trifluoromethoxy)phenyl]methyl]-pyrrolidin-2-yl]carbonyl]-4-cyclopropyl-1,2,3,4-tetrahydroquinoxaline] |  | 126 to 1000 nM | > 50100 nM |  | 
10 | O=C(N1CCN(C2CC2)c2ccccc21)C1(OCc2cc(Cl)ccc2Cl)CCCCC1 [Example 242] |  | 126 to 1000 nM | > 50100 nM |  | 
11 | O=C(N1CCN(C2CC2)c2ccccc21)C1(OCc2cc(Cl)ccc2Cl)CNC1 [Example 50, (4-cyclopropyl-3,4-dihydroquinoxalin-1(2H)-yl)(3-(2,5-dichlorobenzyloxyl)azetidin-3-yl)methanone] |  | 126 to 1000 nM | 1260 to 50100 nM |  | 
12 | O=C(O)CN(CCCCCc1cc(Cl)c(CN2CSC[C@H]2C(=O)N2CCN(C3CC3)c3ccccc32)cc1Cl)CC(=O)O [Example 276] |  |  |  | 7.6 ng/mL | 
13 | CN(C[C@H](O)[C@@H](O)[C@H](O)[C@H](O)CO)C(=O)NCCOc1cc(Cl)c(CNC2(C(=O)N3CCN(C4CC4)c4ccccc43)CC2)cc1Cl [Example 188] |  |  | 126 to 1000 nM |  | B (B is a pEC50 of 6-6.9)
14 | NCCCc1cc(Cl)c(CNC2(C(=O)N3CCN(C4CC4)c4ccccc43)CC2)cc1Cl [Example 92, (1-(4-(3-aminopropyl)-2,5-dichlorobenzylamino)cyclopropyl)(4-cyclopropyl-3,4-dihydroquinoxalin-1(2H)-yl)methanone] |  | 1260 to 50100 nM | 1260 to 50100 nM |  | 
15 | O=C(N1CCN(C2CC2)c2ccccc21)C1(NCc2cc(Cl)ccc2Cl)COC1 [Example 90, (4-cyclopropyl-3,4-dihydroquinoxalin-1(2H)-yl)(3-(2,5-dichlorobenzylamino)oxetan-3-yl)methanone] |  | < 100 nM | 126 to 1000 nM |  | 
16 | CN(C[C@H](O)[C@@H](O)[C@H](O)[C@H](O)CO)C(=O)NCCCc1cc(Cl)c(CNC2(C(=O)N3CCN(C4CC4)c4ccccc43)CC2)cc1Cl [Example 93, 3-(3-(2,5-dichloro-4-((1-(4-cyclopropyl-1,2,3,4-tetrahydroquinoxaline-1-carbonyl)cyclopropylamino)methyl)phenyl)propyl)-1-methyl-1-((2S,3R,4R,5R)-2,3,4,5,6-pentahydroxyhexyl)urea] |  | 126 to 1000 nM | 126 to 1000 nM |  | 
17 | COc1cc(Cl)c(CN2CCC[C@H]2C(=O)N2CCN(C3CC3)c3ccccc32)cc1Cl [Example 89, (S)-(4-cyclopropyl-3,4-dihydroquinoxalin-1(2H)-yl)(1-(2,5-dichloro-4-methoxybenzyl)pyrrolidin-2-yl)methanone] |  | 126 to 1000 nM | 1260 to 50100 nM |  | 
18 | O=C(N1CCN(C2CC2)c2ccccc21)C1(OCc2cc(Cl)cc(OC(F)(F)F)c2)CC1 [Example 248] |  | 1260 to 50100 nM | 1260 to 50100 nM |  | 
19 | CN(C[C@H](O)[C@@H](O)[C@H](O)[C@H](O)CO)C(=O)CCc1ccc(Cl)c(CNC2(C(=O)N3CCN(C4CC4)c4ccccc43)CC2)c1 [Example 60, 3-(4-chloro-3-(((1-(4-cyclopropyl-1,2,3,4-tetrahydroquinoxaline-1-carbonyl)cyclopropyl)amino)methyl)phenyl)-N-methyl-N-((2S,3R,4R,5R)-2,3,4,5,6-pentahydroxyhexyl)propanamide] |  | 126 to 1000 nM | 126 to 1000 nM |  | 
20 | O=C(O)CCc1ccc(Cl)c(CNC2(C(=O)N3CCN(C4CC4)c4ccccc43)CC2)c1 [Example 59, 3-(4-chloro-3-(((1-(4-cyclopropyl-1,2,3,4-tetrahydroquinoxaline-1-carbonyl)cyclopropyl)amino)methyl)phenyl)propanoic acid] |  | 126 to 1000 nM | 1260 to 50100 nM |  | 
21 | O=C(N1CCN(C2CC2)c2ccccc21)C1(OCc2c(Cl)cccc2Cl)CC1 [Example 247] |  | 1260 to 50100 nM | 1260 to 50100 nM |  | 
22 | CN(C[C@H](O)[C@@H](O)[C@H](O)[C@H](O)CO)C(=O)CCCCc1cc(Cl)c(CNC2(C(=O)N3CCN(C4CC4)c4ccccc43)CC2)cc1Cl [Example 219] |  | < 100 nM | < 100 nM |  | 
23 | N#Cc1cccc(COC2(C(=O)N3CCN(C4CC4)c4ccccc43)CC2)c1 [Example 45, 3-((1-(4-cyclopropyl-1,2,3,4-tetrahydroquinoxaline-1-carbonyl)cyclopropoxy)methyl)benzonitrile] |  | 126 to 1000 nM | 1260 to 50100 nM |  | 
24 | CN(C[C@H](O)[C@@H](O)[C@@H](O)[C@H](O)CO)C(=O)NCCCc1cc(Cl)c(CNC2(C(=O)N3CCN(C4CC4)c4ccccc43)CC2)cc1Cl [Example 214] |  | 126 to 1000 nM | 126 to 1000 nM |  | 
